Read-outs that look alike come from different tables or passages of the source. One block for each compound: values may come before it.
Molecular target: human PDHK2 (hPDHK2) (Homo sapiens (Human), UniProt Q15119)
Experiment: Inhibitory action of PDHK activity in vitro (kinase reaction, residual PDH activity measured)
Format: biochemical
[1] = PDHK inhibitory activity (class symbol)
[2] = read-out: PDHK inhibitory activity IC50

Structure (SMILES): CCCc1cc(-c2cnn(C(CO)CO)c2)c2c(c1)C(O)(C(F)(F)F)c1ccccc1-2 (stereo not shown) [compound 652]
IC50 [1]: < 100 nM
IC50 [2]: 36 nM

Structure (SMILES): CCc1cc(-c2cnn(C(CO)CO)c2)c2c(c1)C(O)(C(F)(F)F)c1ccccc1-2 (stereo not shown) [compound 653]
IC50 [1]: < 100 nM
IC50 [2]: 37 nM

Structure (SMILES): CC(C)c1cc(-c2cnn(C(CO)CO)c2)c2c(c1)C(O)(C(F)(F)F)c1ccccc1-2 (stereo not shown) [compound 654]
IC50 [1]: < 100 nM
IC50 [2]: 55 nM

Structure (SMILES): NC(=O)c1cc(CCCN2CCCC2=O)cc2c1-c1ccccc1C2(O)C(F)(F)F (stereo not shown) [compound 655]
IC50 [1]: < 100 nM
IC50 [2]: 73 nM

Structure (SMILES): O=C1CCCN1CCCc1cc(CO)c2c(c1)C(O)(C(F)(F)F)c1ccccc1-2 (stereo not shown) [compound 656]
IC50 [1]: 100 to 1000 nM
IC50 [2]: 172 nM

Structure (SMILES): NC(=O)c1cc(-c2cncnc2)cc2c1-c1ccccc1C2(O)C(F)(F)F (stereo not shown) [compound 658]
IC50 [1]: < 100 nM
IC50 [2]: 71 nM

Structure (SMILES): CC(C)(O)Cn1cc(-c2cc(CO)c3c(c2)C(O)(C(F)(F)F)c2ccccc2-3)cn1 (stereo not shown) [compound 661]
IC50 [1]: < 100 nM
IC50 [2]: 59 nM

Structure (SMILES): NC(=O)c1cc(-c2cnn(CC3CCCCC3)c2)cc2c1-c1ccccc1C2(O)C(F)(F)F (stereo not shown) [compound 662]
IC50 [1]: < 100 nM
IC50 [2]: 34 nM

Structure (SMILES): CC(C)(C)CCc1cc(-c2cnn(C(CO)CO)c2)c2c(c1)C(O)(C(F)(F)F)c1ccccc1-2 (stereo not shown) [compound 666]
IC50 [1]: < 100 nM
IC50 [2]: 27 nM

Structure (SMILES): N#Cc1ccc2c(c1)C(O)(C(F)(F)F)c1ccccc1-2 (stereo not shown) [compound 671]
IC50 [1]: > 1000 nM
IC50 [2]: 1440 nM

IC50 [1]: < 100 nM
IC50 (PDHK inhibitory activity IC50 (μmol/L)): 19 nM
Structure (SMILES): Cc1cc(-c2cnn(C(CO)(CO)CO)c2)c2c(c1)[C@@](O)(C(F)(F)F)c1ccccc1-2 [compound 707, (+)-2-hydroxymethyl-2-[4-(9-hydroxy-2-methyl-9-trifluoromethyl-9H-fluoren-4-yl)-pyrazol-1-yl]-propane-1,3-diol]
